# Laboratory results taken from BindingDB's records for patent US11299480 (University of Hawaii, 2022).
# Target: Signal transducer and activator of transcription 3 (Homo sapiens, UniProt P40763)
# Experiment: In Vitro Assay
# Procedure: Except where indicated, nuclear extracts were pre-incubated with compound for 30 min at room temperature prior to incubation with the radiolabeled probe for 30 min at 30° C. before subjecting to EMSA analysis. Where appropriate, bands corresponding to Stat3:DNA complexes were scanned and quantified for each concentration of compound using ImageJ and plotted as percent of control (DMSO) against concentration of compound, from which the IC50 values were derived.
# Signal transducer and activator of transcription 3, sequence (P40763 whole entry): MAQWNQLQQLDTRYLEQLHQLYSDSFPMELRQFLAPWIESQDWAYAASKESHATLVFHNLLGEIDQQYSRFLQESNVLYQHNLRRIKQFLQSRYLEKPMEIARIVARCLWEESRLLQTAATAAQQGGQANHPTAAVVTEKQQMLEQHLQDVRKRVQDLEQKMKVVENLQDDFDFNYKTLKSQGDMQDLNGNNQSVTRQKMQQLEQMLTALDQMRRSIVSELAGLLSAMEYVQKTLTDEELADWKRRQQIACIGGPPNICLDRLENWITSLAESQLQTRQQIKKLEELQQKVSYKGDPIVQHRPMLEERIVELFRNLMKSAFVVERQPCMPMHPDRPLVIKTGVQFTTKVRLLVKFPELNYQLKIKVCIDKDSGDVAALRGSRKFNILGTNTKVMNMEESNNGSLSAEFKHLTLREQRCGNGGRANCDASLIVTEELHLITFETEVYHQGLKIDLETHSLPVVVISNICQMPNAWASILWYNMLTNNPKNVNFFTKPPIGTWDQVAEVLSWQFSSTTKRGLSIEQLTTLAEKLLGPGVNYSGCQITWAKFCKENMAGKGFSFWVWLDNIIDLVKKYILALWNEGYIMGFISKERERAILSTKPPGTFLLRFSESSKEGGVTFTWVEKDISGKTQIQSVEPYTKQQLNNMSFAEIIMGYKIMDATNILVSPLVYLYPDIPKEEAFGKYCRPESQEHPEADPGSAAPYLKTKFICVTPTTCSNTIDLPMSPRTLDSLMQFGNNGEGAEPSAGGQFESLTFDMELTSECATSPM
compound,measurement,value
"O=C(O)c1ccc(N(Cc2cnc(C3CCCCC3)cn2)C(=O)[C@H]2CCN2S(=O)(=O)c2c(F)c(F)c(F)c(Cl)c2F)cc1O [US11299480, Example 152]",IC50,422 nM
